From patent US5124334A, “Benzylalcohol phospholipase A2 inhibitors” (Du Pont Merck Pharmaceutical Company, priority 1989, dated 1992)
Structures can show the parent of a compound that is named as a salt.

What follows are compounds tested on inflammation induced by tetradecanoyl phorbol acetate (TPA) (assay: TPA inflammation inhibition test (TPA-induced mouse ear edema)). Conditions: test compound 100 mg/ear applied topically, edema measured four hours later.
Format: in vivo, mice
Source text: One such model is the inflammation induced by tetradecanoyl phorbol acetate (TPA), modified from the method of Kuehl et al., Nature, 1977, 265, 170; and Van Arman, Clin. Pharmacol. Ther., 1974, 16, 900. The TPA model mimics many of the inflammatory change which occur in human skin diseases such as psoriasis, since elevated levels of inflammatory arachidonic acid metabolites are found and an influx of polymorphonuclear leukocytes is observed. The test procedure used to evaluate the compounds of Formula (I) is as follows: the test compound (100 mg/ear) is applied to both ears of mice in an appropriate vehicle, such as acetone, and then the inflammatory stimulus (TPA) is applied to the right ear. Four hours later, the edema is measured by removing standard size discs from the ears using a biopsy punch. A control group of animals receives TPA in vehicle applied to the right ear, and vehicle alone to the left ear. The weights of the ear discs are determined, and the suppression of swelling observed in animals treated with the test compound is determined.

Row | Structure (SMILES) | % Inhibition of Control Swelling
1 | CC(C)c1ccc2c(c1)CCC1C(C)(CNCCC(O)c3ccc(F)cc3)CCCC21C (stereo not drawn) [Example 1, α-(2-[1,4a-Dimethyl-7-(2-propyl)-1,2,3,4,4a,9,10,10a-octahydro-1-phenanthren-1-yl]methylamino)ethyl)-4-fluorobenzenemethanol Hydrochloride] | 46%
2 | COc1ccc(C(O)CCNCC2(C)CCCC3(C)c4ccc(C(C)C)cc4CCC23)cc1.Cl (stereo not drawn) [Example 12, α-(2-([1,4a-Dimethyl-1,2,3,4,4a,9,10,10a-octahydro-7-(2-propyl)-1-phenanthrenyl]methylamino)-ethyl)-4-methoxybenzenemethanol Hydrochloride] | 27%
3 | CC(C)c1ccc2c(c1)CCC1C(C)(CNCCCC(O)c3ccc(F)cc3)CCCC21C.Cl (stereo not drawn) [Example 2, α-(3-([1,4a-Dimethyl-1,2,3,4,4a,9,10,10a-octahydro-7-(2-propyl)-1-phenanthrenyl]methylamino)propyl)-4-fluorobenzenemethanol Hydrochloride] | 57%
